Laboratory results published in patent US20070274907A1 (priority 2004, published 2007).

Experiments:
swine = test: 28 day toxicity study, pulmonary artery delivery with magnetic targeting
Method: Each animal received a single dose of either control or test article at fixed concentrations by pulmonary artery infusion. […] The vehicle control group received 16 mL of vehicle.
A test article was administered as a single infusion to Groups 1 and 2 and as two infusions in all other groups. A 15 minute magnetic retention period separated the two infusions in Groups 3 and 4. The infusion rate was maintained at a flow rate of 2 mL/min. At the end of the 15 minute magnetic retention period, an angiogram was performed to verify arterial patency in the selected lung lobe. Assessment of toxicity following treatment included laboratory tests in which blood samples were collected for evaluation of serum chemistry, hematology and coagulation parameters prior to dosing (Day 0) and post-dosing on Days 1, 3, 7, 14, 21 and 28.

[1] = system: squamous cell carcinoma of the lung; conditions: 10 mg MMC intra-arterially, after 28 to 48 days, 9 patients; cited from earlier work
[2] = Mitomycin binding kinetics to magnetically targetable carrier particle; format: physicochemical; conditions: for initial mitomycin remaining in the binding supernatant: 5 minutes, 25 mg carrier, 0.755 mg/mL mitomycin
Method: Mitomycin binding kinetics was measured at room temperature, and 40° C. […] The mixture was incubated at room temperature and at 40° C. for various time periods up to 60 minutes. The concentration of mitomycin remaining in the binding supernatant was obtained by filtering the sample at a predefined time point and then analyzing by HPLC to determine percentage bound.

[3] = Toxicokinetic analysis of plasma MMC after pulmonary artery infusion
[4] = system: squamous cell carcinoma or adenocarcinoma; conditions: full series of 4 treatments, 10 mg MMC each, bronchial artery; cited from earlier work
bronchogenic carcinoma = conditions: 39 patients; cited from earlier work

Which results are given for `CO[C@@]12[C@H](COC(N)=O)C3=C(C(=O)C(C)=C(N)C3=O)N1C[C@@H]1N[C@@H]12` [MMC, Mitomycin C]?
stomach ulceration (swine; 28 days post-dosing, not dose-related): stomach ulceration was seen in some animals; clinical signs (swine; MMC alone group, 4 mg MMC): transient diarrhea in two animals; embolization (post-treatment angiography) (swine; MMC control, 4 mg MMC): no embolization; complete remission of the tumor, patients [1]: 2 patients; partial remission, patients [1]: 2 patients; initial mitomycin remaining in the binding supernatant ([2]; 40° C): 3%; initial mitomycin remaining in the binding supernatant ([2]; room temperature): 2%; time to adsorption equilibrium ([2]; both room temperature and 40° C): less than 5 minutes; stability of mitomycin solution during incubation ([2]; room temperature and 40° C, up to 60 minutes): stable at both temperatures; Cmax ([3]; Yorkshire, pig, in vivo, 4 mg): 178 ± 27.1 ng/mL; Vd ([3]; Yorkshire, pig, in vivo, 4 mg): 47.3 ± 13.2 L; clearance ([3]; Yorkshire, pig, in vivo, 4 mg): 618 ± 54 mL/min; half-life ([3]; Yorkshire, pig, in vivo, 4 mg, β or λ t1/2, swine, 4 mg MMC): 1.12 ± 0.278 h; half-life ([3]; Yorkshire, swine, in vivo, distribution half-life, swine, summary over dose groups): ~0.133 h; half-life ([3]; Yorkshire, swine, in vivo, elimination half-life, swine, summary over dose groups): ~1.08 h; AUC ([3]; swine, 4 mg MMC, pulmonary artery infusion, plasma MMC): 6507 ± 568 (ng/ml) × min; patients with a 20% to 50% decrease of the tumor area [4]: 3 patients; patients with a 50% decrease of the tumor area [4]: 5 patients; neurologic complications (bronchogenic carcinoma): No neurologic complications occurred; side effects (bronchogenic carcinoma): insignificant
